Entries after “also recorded” stand apart in the source; their conditions may differ.
What was measured:
[1] = Crystallographic x-ray diffraction (XRD) ice crystal formation assay; format: physicochemical; conditions: for reduction of necessary EG concentration while preventing ice formation (ice ring scores, FIG. 3D): 1 and 5 mg/mL compound, EG 15% to 30% (v/v)
Procedure: In order to increase the throughput of library analysis, a crystallographic x-ray diffraction (XRD) technique was used to evaluate ice crystal formation. For these experiments, the compounds named “Compound 2,” “Compound 8,” “Compound 10,” “Compound 11,” “Compound 12,” “Compound 13,” and “Compound 58” were tested. Compound 58 is similar to Compound 12, except that an arginine amino acid has been appended to the N-terminal end.
For these experiments, EG concentrations between 15% and 30% (v/v) were used. Typically, EG, DMSO, and other cryoprotectants are used during XRD sample analysis at concentrations of 35-40% (v/v) to vitrify solutions and avoid diffraction interference from ice crystals. Concentrations of 1 and 5 mg/mL of the peptoid and peptoid-peptide compounds were used. […] FIG. 3D provides ice rings scores for a variety of EG concentrations and two concentrations of Compounds 2, 8, and 12.
“IceRing1” and “IceRing2” refer to ice formation scores, which range between 0 (no ice formation) and 15 (large ice formation).
The sample containing Compound 12 at a concentration of 5 mg/mL (0.5% (w/v)) and EG at a concentration of 17.5% (v/v) in water was ice-free after flash freezing. […] In the figures, black spots and rings represent ice crystals.

[2] = tested on: HEK 293 cell line; assay: Cytotoxicity assay (MTT); format: cell-based, human
Procedure: A Tecan Genesis Robotic Workstation was used to prepare solutions in 96- and 384-well plates. Solutions contained culture media, buffers, a cryoprotectant composition of the present invention (Compound 12) or DMSO. Solutions were adjusted to the desired pH. Serial dilutions were performed to obtain solutions containing various concentrations of Compound 12 and DMSO. Control experiments were performed using only culture media.
For these experiments, cells were seeded at low density (i.e., 10% confluence), exposed to solutions containing Compound 12 or DMSO, and placed in a 37° C. incubator. The cells were allowed to grow until control cells that were treated only with empty vehicle approached 70% confluence (typically about 3 to 5 days). Assessment for compound cytotoxicity was via MTT assay.

[3] = Larger volume flash freeze / rewarm / −20° C. storage assay; format: physicochemical
Procedure: In order to test the usefulness of compositions of the present invention at larger scales, experiments were performed using solution volumes that are similar to volumes used for standard egg and stem cell preservation. For these experiments, two samples, one containing 22.5% EG and buffer only, and another containing 22.5% EG and 5 mg/ml (0.5% w/v) of Compound 12 and buffer, were flash frozen in liquid nitrogen. […] The rewarming of the solutions in a 37° C. water bath led to an unexpected and beneficial result. The Compound 12 solution bypassed devitrification in less than 2 seconds upon rewarming (FIG. 6B, right), whereas chunks of ice were seen floating in the control sample (FIG. 6B, left) after 20 seconds. Condensation was seen on each of the tubes because the tubes were actually still much below room temperature.

[4] = tested on: HEK 293 cells; assay: Cryopreservation assay (flash freeze-thaw, Calcein AM viability); format: cell-based, human
Procedure: Initial cryopreservation assays were performed using very simple solutions, with and without the addition of Compound 12, in order to minimize confounding outside factors. For this first set of experiments, two sample solutions were prepared. The first sample solution contained simple buffer and ethylene glycol (EG) at a concentration of 22.5% (v/v), and the second sample solution contained simple buffer, EG (22.5% (v/v)), and 5 mg/mL (0.5% (w/v)) of Compound 12.
HEK 293 cells were grown until 70% confluent, then treated with trypsin to remove adhesion proteins and yield free floating cells. Cells were counted using a hemocytometer and sample cell concentrations were adjusted to final concentrations of 10,000 cells per microliter. Cells were then compressed into tight pellets by centrifugation, and each sample was subsequently mixed with 20 μL of one of the sample solutions. Samples were then flash frozen by immersion in liquid nitrogen, followed by rewarming in a 37° C. water bath. After the freeze-thaw process, cells were suspended in a 400× volume of culture media for recovery. The positive control sample was treated with culture media at 37° C. and not subjected to the freeze-thaw process. The negative control sample was treated with culture media only during the freeze-thaw process. After recovery, cells were stained with Calcein AM for 30 minutes and cell viability was measured using a fluorescence plate reader.
A second set of experiments was performed to evaluate the cryopreservation potential of a formulation that contained 5 mg/mL of Compound 12 plus a mixture of glycols, disaccharides, and a general buffer. Post-thaw survival following vitrification in liquid nitrogen was evaluated as described above.

[5] = 160 mM ethylene glycol in MilliQ water, slow cooled, −20° C., one hour
Procedure: In this experiment, four water-based samples were prepared in capillary tubes containing MilliQ purified water. One sample contained only water, and another sample contained 160 mM ethylene glycol (EG). The other two samples each contained a peptoid polymer at 9 mM. One of the peptoid polymer samples contained the peptoid polymer called “Compound 1,” while the other sample contained the peptoid polymer called “Compound 10.” The sequences of the peptoid polymers are as follows:
After sample preparation, all samples were slow cooled and incubated at −20° C. on a Peltier cooled plate. After one hour, samples were removed and immediately photographed using a digital camera attached to a 180× Stereo Zoom microscope (FIG. 2A).

[6] = buffer + EG 22.5% (v/v) + 5 mg/mL Compound 12 with HEK 293 cells

CCC(C)NCC(=O)N(CC(=O)N(CC(=O)N(CC(=O)N(CC(=O)N(CC(=O)N(CC(=O)N(CC(=O)N(CC(=O)N(CC(N)=O)CC(C)O)C(C)CC)C(C)CC)C(C)CC)CC(C)O)CC(C)O)CC(C)O)C(C)CC)C(C)CC (stereo not drawn) [Compound 2, Nsb-Nsb-Nsb-Nhp-Nhp-Nhp-Nsb-Nsb-Nsb-Nhp]
reduction of necessary EG concentration while preventing ice formation (ice ring scores, FIG. 3D) [1]: significantly reduced necessary EG concentrations while preventing ice formation

C[S+](C)[O-] [DMSO, dimethyl sulfoxide, reference compound]
concentration above which warm survival for an extended period of time was not allowed ([2]; HEK 293, MTT assay): above 0.5 % (v/v)

CCC(C)NCC(=O)N(CC(=O)N(CC(=O)N(CC(=O)N(CC(=O)N(CC(=O)N(CC(=O)N(CC(=O)N(CC(=O)N(CC(N)=O)C(C)CC)C(C)CC)CC(C)O)CC(C)O)C(C)CC)C(C)CC)CC(C)O)CC(C)O)C(C)CC (stereo not drawn) [Compound 12, Nsb-Nsb-Nhp-Nhp-Nsb-Nsb-Nhp-Nhp-Nsb-Nsb]
vitrification / ice formation on flash freezing in liquid nitrogen ([3]; 22.5% EG + 5 mg/ml (0.5% w/v) Compound 12 + buffer, −196° C.): complete vitrification with no ice formation; also recorded: able to vitrify; also recorded: vitrified
time to bypass devitrification upon rewarming ([3]; 22.5% EG + 5 mg/ml Compound 12, 37° C. water bath): less than 2 seconds
state after overnight in −20° C. freezer ([3]; 22.5% EG + 5 mg/ml Compound 12, 100 μL samples): completely unfrozen; also recorded: remained unfrozen
behaviour during rewarming / thawing ([3]; 22.5% EG + 5 mg/ml Compound 12, rewarming at 37° C.): active de-icer during thawing; also recorded: unfroze (within two seconds)
toxicity (MTT assay) ([2]; HEK 293, at 0.5% w/v): did not show toxicity
toxicity (MTT assay) ([2]; HEK 293, at concentrations four times greater than 0.5% w/v): did not show significant toxicity
toxicity compared with culture media alone (MTT assay) ([2]; HEK 293, serial dilutions, 37° C., about 3 to 5 days): did not significantly deviate from the that of culture media alone
reduction of necessary EG concentration while preventing ice formation (ice ring scores, FIG. 3D) [1]: significantly reduced necessary EG concentrations while preventing ice formation
ice formation after flash freezing (XRD, FIG. 3A) ([1]; Compound 12 5 mg/mL (0.5% (w/v)) + EG 17.5% (v/v) in water, stream of liquid nitrogen vapor): complete vitrification; also recorded: ice-free; also recorded: completely eliminate all ice formation
anti-icing effect in comparison to EG at the same molar concentration ([1]; Compound 12 5 mg/mL + EG 17.5% (v/v)): 500 times
cell survival after freeze-thaw versus EG alone (FIG. 8) ([4]; HEK 293, buffer + EG 22.5% (v/v) + 5 mg/mL Compound 12, liquid nitrogen, viability 12 hours post-thaw): greatly improved cell survival
cryopreservation compared to VS2E and M22 ([4]; HEK 293, formulation containing 5 mg/mL Compound 12): superior cryopreservation
post-thaw survival of the cells ([4]; HEK 293, formulation with 5 mg/mL Compound 12 plus mixture of glycols, disaccharides, general buffer, vitrified in liquid nitrogen, 16 hours post-thaw): 98%
devitrification on rewarming compared to sample lacking Compound 12 [4, 6]: bypassed much more rapidly
vitrification during the freezing process [4, 6]: complete vitrification without ice formation

CCC(C)NCC(=O)N(CC(=O)N(CC(=O)N(CC(=O)N(CC(=O)N(CC(=O)N(CC(=O)N(CC(=O)N(CC(=O)N(CC(N)=O)CC(C)O)CC(C)O)CC(C)O)C(C)CC)CC(C)O)CC(C)O)CC(C)O)CC(C)O)CC(C)O (stereo not drawn) [Compound 8, Nsb-Nhp-Nhp-Nhp-Nhp-Nhp-Nsb-Nhp-Nhp-Nhp]
reduction of necessary EG concentration while preventing ice formation (ice ring scores, FIG. 3D) [1]: significantly reduced necessary EG concentrations while preventing ice formation

OCCO [EG, ethylene glycol, reference compound]
ice crystal formation [5]: significant ice crystal formation
ice formation after flash freezing (XRD, FIG. 3B) ([1]; 30% (v/v) EG alone): partial vitrification with the presence of cubic ice

From patent US11510407B2, “Compositions and methods for reducing ice crystal formation” (X-THERMA, INC., priority 2015, dated 2022)
